Tested on: CD4 T cells
Experiment: CD4 T cell activation and differentiation in vitro with Dkk-1 or Wnt3a
Format: cell-based, mice
Conditions: naïve CD4 T cells, Wnt3a 20% v/v, 96 hours
From the text: FIG. 5, comprising FIG. 5A through FIG. 5E, depicts results of experiments showing Dkk-1 induces TH2 cell polarization. FIG. 5A depicts lungs harvested for immunohistochemistry of CD3 (dark brown), CD41 (blue) and isotype control antibodies of lungs from Dkk-1^d/d mice and their wildtype littermate controls challenged with HDM extract allergen. Orange arrowheads in the images indicate co-localized CD3 T cells with CD41^+ platelets. FIG. 5B depicts ELISA analysis of Dkk-1 from plasma samples from Dkk-1^d/d mice (n=5) collected 24 hours after challenge with 50 μg HDM. FIG. 5C depicts ELISA analysis of splenic CD4 T cells from 6-8 week-old C57BL/6 mice were activated with anti-CD3 and anti-CD28 antibodies (Act) with or without Dkk-1 (30 ng/ml unless indicated) for 4 days. FIG. 5D depicts flow cytometry analysis of splenic CD4 T cells from 6-8 week-old C57BL/6 mice were activated with anti-CD3 and anti-CD28 antibodies (Act) with or without Dkk-1 (30 ng/ml unless indicated) for 4 days. FIG. 5E depicts ELISA analysis of naïve CD4 T cells stimulated anti-CD3 and anti-CD28 antibodies for 96 hr with or without Dkk-1.
FIG. 6, comprising FIG. 6A through FIG. 6E, depicts results of experiments showing Dkk-1 induces TH2 cytokines in various T cell differentiation conditions. FIG. 6A depicts flow cytometry and ELISA analysis of naïve CD4 T cells were stimulated under TH1 polarization conditions for 96 hours with or without Dkk-1. FIG. 6B depicts flow cytometry and ELISA analysis of naïve CD4 T cells were stimulated under TH2 polarization conditions for 96 hours with or without Dkk-1. FIG. 6C depicts flow cytometry analysis of Foxp3, IL-17A, and IL-10 expression in splenic naïve CD4 T cells isolated and differentiated into iTreg for 5 days with 100 U/ml IL-2 and 1.5 ng/ml TGF-β with or without 30 ng/ml and 3 ng/ml of Dkk-1 treated during the culture. FIG. 6D depicts Gata-3 expression levels of splenic naïve CD4 T cells from 8 week-old C57BL/6 mice treated with Dkk-1 with varying doses of Dkk-1 (50, 30, 7.5 ng/ml) or Wnt3a (20% v/v) for 96 hours in the presence of anti-CD3 and anti-CD28 antibody stimulation. FIG. 6E depicts qPCR results of Tcf7 and Lef1 mRNA harvested from splenic naïve CD4 T cells from 8 week-old C57BL/6 mice stimulated with or without Dkk-1 (30 ng/ml) for 96 hours. All results were statistically non-significant. All experiments are a representative of two to three independent experiments. Student's t-test or one way-ANOVA analysis with Bonferonni's post-hoc test were performed. Small horizontal lines and error bars indicate the mean (±s.e.m.). ***, p<0.0001, **, p<0.005, *, p<0.05.
FIG. 8, comprising FIG. 8A through FIG. 8G, depicts results of experiments showing Dkk-1 induces IL-10 in CD4 T cells via SGK-1 and p38 MAPK. FIG. 8A depicts ELISA analysis of naïve CD4 T cell differentiated into TH2 cells with or without Dkk-1 (30 ng/ml), SGK-1 inhibitor (2 μM) or p38 inhibitor (10 μM) for 96 hours. FIG. 8B depicts flow cytometry analysis of human naïve CD4 T cells (CD4^+CD25^−CD45RA^+) transduced with SGK-1 shRNA and selected with puromycin (0.5 μg/ml) for 48 hours. The selected cells were stimulated with anti-CD3 mAb (OKT3) and anti-CD28 mAb with or without Dkk-1 for 96 hr. For the last 5 hr of culture, stimulation cocktail (PMA/Ionomycin/Brefeldin A/Monensin) was added. FIG. 8C depicts intracellular staining with antibodies recognizing phospho-S6 kinase of splenic CD4^+CD25^− cells from 6 week-old C57BL/6 mice were isolated and activated with anti-CD3 and anti-CD28 mAb (2 μg/ml) with or without Dkk-1 (25 ng/ml) for indicated time points. FIG. 8D depicts intracellular staining with antibodies recognizing phospho-4E-BP1 of splenic CD4^+CD25^− cells from 6 week-old C57BL/6 mice were isolated and activated with anti-CD3 and anti-CD28 mAb (2 μg/ml) with or without Dkk-1 (25 ng/ml) for indicated time points. […]

Question: How did the Gata-3 expression turn out when Wnt3a was run?
Answer: induced

Source: patent US11135223B2, “Compositions and methods for inhibiting Dkk-1” (YALE UNIVERSITY, priority 2016, dated 2021)
